Measured values as given in PubChem BioAssay AID328 (DTP/NCI, 2004).
Several values for one entry are separate records, joined by “and”; a condition that tells them apart may be missing. Equal values may be shown once. Inconclusive results and toxic doses are left out. Rule for the calls: active = survival T/C of 150% or more; inactive = T/C below 125% in these data.

Test system: BDF1 mice, P388 leukemia ip, median survival T/C
Test: NCI In Vivo Anticancer Drug Screen. Data for tumor model P388 Leukemia (intraperitoneal) in B6D2F1 (BDF1) mice
Conditions: endpoint: median survival time, higher = longer survival
Summary of the method: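 Transplantable tumour in mice; compound vs vehicle dosing; survival scored; ratio of treated to control reported.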

[1] = dose: 25.0 mg/kg/injection, schedule: Q01DX009 (ip), vehicle: saline with Tween-80
[2] = dose: 100.0 mg/kg/injection, schedule: Q01DX009 (ip), vehicle: saline with Tween-80
[3] = dose: 100.0 mg/kg/injection, schedule: Q04DX003 (ip), vehicle: saline sonified
[4] = dose: 200.0 mg/kg/injection, schedule: Q04DX003 (ip), vehicle: saline sonified
[5] = dose: 25.0 mg/kg/injection, schedule: Q04DX003 (ip), vehicle: saline with Tween-80
[6] = dose: 50.0 mg/kg/injection, schedule: Q04DX003 (ip), vehicle: saline
[7] = dose: 100.0 mg/kg/injection, schedule: Q04DX003 (ip), vehicle: saline
[8] = dose: 200.0 mg/kg/injection, schedule: Q04DX003 (ip), vehicle: saline
[9] = dose: 100.0 mg/kg/injection, schedule: Q04DX003 (ip), vehicle: saline with Tween-80
[10] = dose: 200.0 mg/kg/injection, schedule: Q04DX003 (ip), vehicle: saline with Tween-80
[11] = dose: 400.0 mg/kg/injection, schedule: Q04DX003 (ip), vehicle: saline with Tween-80
[12] = dose: 50.0 mg/kg/injection, schedule: Q04DX003 (ip), vehicle: saline with Tween-80
[13] = dose: 50.0 mg/kg/injection, schedule: Q01DX009 (ip), vehicle: saline with Tween-80
[14] = dose: 200.0 mg/kg/injection, schedule: Q01DX009 (ip), vehicle: saline with Tween-80
[15] = dose: 50.0 mg/kg/injection, schedule: Q01DX005 (ip), vehicle: saline with Tween-80
[16] = dose: 100.0 mg/kg/injection, schedule: Q01DX005 (ip), vehicle: saline with Tween-80
[17] = dose: 200.0 mg/kg/injection, schedule: Q01DX005 (ip), vehicle: saline with Tween-80
[18] = dose: 12.5 mg/kg/injection, schedule: Q01DX009 (ip), vehicle: Klucel (hydroxypropylcellulose) (HPC)
[19] = dose: 25.0 mg/kg/injection, schedule: Q01DX009 (ip), vehicle: Klucel (hydroxypropylcellulose) (HPC)
[20] = dose: 50.0 mg/kg/injection, schedule: Q01DX009 (ip), vehicle: Klucel (hydroxypropylcellulose) (HPC)
[21] = dose: 50.0 mg/kg/injection, schedule: Q01DX009 (ip), vehicle: saline
[22] = dose: 100.0 mg/kg/injection, schedule: Q01DX009 (ip), vehicle: saline
[23] = dose: 200.0 mg/kg/injection, schedule: Q01DX009 (ip), vehicle: saline
[24] = dose: 50.0 mg/kg/injection, schedule: Q04DX003 (ip), vehicle: Klucel (hydroxypropylcellulose) (HPC)
[25] = dose: 100.0 mg/kg/injection, schedule: Q04DX003 (ip), vehicle: Klucel (hydroxypropylcellulose) (HPC)

Measured: T/C

CN(C)N=Nc1ccc(CCCC(=O)NN)cc1
inactive: dose: 1.56 mg/kg/injection, schedule: Q01DX009 (ip), vehicle: saline with Tween-80 109 % of control | dose: 2.0 mg/kg/injection, schedule: Q01DX009 (ip), vehicle: saline with Tween-80 120 % of control | [1] 92 % of control | dose: 50.0 mg/kg/injection, schedule: Q04DX003 (ip), vehicle: saline sonified 100 % of control | [2] 100 % of control | [3] 115 % of control | [4] 110 % of control

NNc1n[nH]c(=S)n1N
inactive: dose: 6.25 mg/kg/injection, schedule: Q04DX003 (ip), vehicle: saline with Tween-80 104 % of control | dose: 12.5 mg/kg/injection, schedule: Q04DX003 (ip), vehicle: saline with Tween-80 100 % of control | [5] 95 % of control

COc1ccc(C2CCc3cc(OC)c(OC)cc3C2NC=O)cc1OC (configuration not stated)
inactive: dose: 120.0 mg/kg/injection, schedule: Q01DX009 (ip), vehicle: saline with Tween-80 87 % of control | dose: 240.0 mg/kg/injection, schedule: Q01DX009 (ip), vehicle: saline with Tween-80 95 % of control

Cc1ncc2c[n+]([O-])ccn12
inactive: [6] 100 % of control | [7] 100 % of control | [8] 90 % of control

CC(=O)Nc1cc(C(=O)O)cc(C(F)(F)F)c1
inactive: [9] 115 % of control | [10] 105 % of control | [11] 95 % of control

Clc1ccc2c(Cl)ncnc2c1
inactive: [9] 104 % of control | [10] 109 % of control

OCC(O)C(O)C(O)C(O)c1nc2ccccc2[nH]1 (configuration not stated)
inactive: [12] 119 % of control | [9] 97 % of control | [10] 95 % of control | [11] 103 % of control

CC1(C)OC1[Si](C)(C)C (configuration not stated)
inactive: [13] 107 % of control | [2] 121 % of control | [14] 111 % of control

COc1ccc(-c2nnc(C)nc2-c2ccc(OC)cc2)cc1
inactive: [15] 96 % of control | [16] 106 % of control | [17] 100 % of control

O=C(NO)c1ccc(O)cc1
inactive: [3] 118 % of control | dose: 132.0 mg/kg/injection, schedule: Q04DX003 (ip), vehicle: saline sonified 100 % of control | [4] 100 % of control

O=C(O)C(=O)c1ccc(-c2ccccc2)cc1
inactive: [1] 90 % of control | [13] 100 % of control | [2] 113 % of control | dose: 150.0 mg/kg/injection, schedule: Q01DX009 (ip), vehicle: saline with Tween-80 110 % of control

CC(=O)Cc1ccc(C(=O)C(C)Cc2ccc(C(C)=O)cc2)cc1 (configuration not stated)
inactive: [9] 100 % of control | [10] 90 % of control | [11] 90 % of control

CCCCCCCCOC(=O)c1[nH]cnc1/N=N\N(C)C
inactive: [18] 95 % of control | [19] 95 % of control | [20] 90 % of control

COC(=O)c1ccccc1NCCCC(=O)O
inactive: [9] 91 % of control | [10] 108 % of control | [11] 100 % of control

c1ccc(-c2cscc2-c2ccccc2)cc1
inactive: dose: 25.0 mg/kg/injection, schedule: Q04DX003 (ip), vehicle: saline 97 % of control | [21] 93 % of control | [6] 108 % of control | [22] 93 % of control | [7] 100 % of control | [23] 101 % of control | dose: 400.0 mg/kg/injection, schedule: Q01DX009 (ip), vehicle: saline 93 % of control | dose: 400.0 mg/kg/injection, schedule: Q04DX003 (ip), vehicle: saline 100 % of control

O=C(O)COCC(F)(F)C(F)(F)C(F)(F)COCC(=O)O
inactive: [21] 90 % of control | [22] 110 % of control | [7] 100 % of control | [23] 110 % of control | [8] 122 % of control

CC1(C)COC(c2ccc(CC(Cc3ccc(C4(C(C)(C)C)OCC(C)(C)CO4)cc3)C(=O)O)cc2)(C(C)(C)C)OC1
inactive: [15] 86 % of control | [16] 93 % of control | [17] 96 % of control

CCCCOc1cc(C(=O)O)ccc1[N+](=O)[O-]
inactive: [5] 100 % of control | [12] 100 % of control | [9] 104 % of control

CN(C(=N)N)c1ccc(C(=O)Oc2ccc([N+](=O)[O-])cc2)cc1
inactive: dose: 12.5 mg/kg/injection, schedule: Q01DX009 (ip), vehicle: water 100 % of control | dose: 18.75 mg/kg/injection, schedule: Q04DX003 (ip), vehicle: water 104 % of control | dose: 25.0 mg/kg/injection, schedule: Q01DX009 (ip), vehicle: water 100 % of control | dose: 37.5 mg/kg/injection, schedule: Q04DX003 (ip), vehicle: water 109 % of control | dose: 50.0 mg/kg/injection, schedule: Q01DX009 (ip), vehicle: water 108 % of control | dose: 75.0 mg/kg/injection, schedule: Q04DX003 (ip), vehicle: water 104 % of control and 117 % of control | dose: 100.0 mg/kg/injection, schedule: Q01DX009 (ip), vehicle: water 104 % of control | dose: 100.0 mg/kg/injection, schedule: Q04DX003 (ip), vehicle: water 99 % of control | dose: 150.0 mg/kg/injection, schedule: Q04DX003 (ip), vehicle: water 117 % of control | dose: 200.0 mg/kg/injection, schedule: Q04DX003 (ip), vehicle: water 89 % of control | dose: 400.0 mg/kg/injection, schedule: Q04DX003 (ip), vehicle: water 89 % of control

CNc1ccc(C(=O)O)c(Cl)c1
inactive: dose: 75.0 mg/kg/injection, schedule: Q04DX003 (ip), vehicle: saline 100 % of control | dose: 150.0 mg/kg/injection, schedule: Q04DX003 (ip), vehicle: saline 95 % of control | dose: 300.0 mg/kg/injection, schedule: Q04DX003 (ip), vehicle: saline 100 % of control

C[N+](C)(C)c1ccc(/C=N\NC(=O)c2ccccc2)cc1
inactive: [18] 105 % of control | dose: 12.5 mg/kg/injection, schedule: Q04DX003 (ip), vehicle: Klucel (hydroxypropylcellulose) (HPC) 100 % of control | [19] 105 % of control | dose: 25.0 mg/kg/injection, schedule: Q04DX003 (ip), vehicle: Klucel (hydroxypropylcellulose) (HPC) 100 % of control | [20] 105 % of control | [24] 95 % of control

COC(=O)CSC/C(=N\Nc1ccccc1)c1ccccc1
inactive: dose: 100.0 mg/kg/injection, schedule: Q01DX001 (ip), vehicle: Klucel (hydroxypropylcellulose) (HPC) 95 % of control | dose: 200.0 mg/kg/injection, schedule: Q01DX001 (ip), vehicle: Klucel (hydroxypropylcellulose) (HPC) 100 % of control | dose: 400.0 mg/kg/injection, schedule: Q01DX001 (ip), vehicle: Klucel (hydroxypropylcellulose) (HPC) 109 % of control

O=C(/C=N\O)c1ccncc1
inactive: [24] 100 % of control | [25] 100 % of control

CCOC(=O)c1cnc(SC)nc1NCc1ccccc1Cl
inactive: dose: 100.0 mg/kg/injection, schedule: Q01DX009 (ip), vehicle: Klucel (hydroxypropylcellulose) (HPC) 100 % of control | dose: 200.0 mg/kg/injection, schedule: Q01DX009 (ip), vehicle: Klucel (hydroxypropylcellulose) (HPC) 100 % of control | dose: 400.0 mg/kg/injection, schedule: Q01DX009 (ip), vehicle: Klucel (hydroxypropylcellulose) (HPC) 100 % of control

Nc1nc2ccccc2c(=O)n1C(=O)c1ccccc1
inactive: [9] 93 % of control | [10] 94 % of control | [11] 116 % of control

COc1ccc(NC(=S)N(C)C)cc1
inactive: [2] 100 % of control | [14] 109 % of control | dose: 400.0 mg/kg/injection, schedule: Q01DX009 (ip), vehicle: saline with Tween-80 109 % of control

CC1(C)C2CC3C(=CCCC3C#N)C1C2 (configuration not stated)
inactive: [25] 100 % of control | dose: 200.0 mg/kg/injection, schedule: Q04DX003 (ip), vehicle: Klucel (hydroxypropylcellulose) (HPC) 100 % of control | dose: 400.0 mg/kg/injection, schedule: Q04DX003 (ip), vehicle: Klucel (hydroxypropylcellulose) (HPC) 100 % of control
